Data as given in paper PMC6001782 (Chemistry (Weinheim an Der Bergstrasse, Germany), 2018).

Biological target: T1, BtGH99 (Bacteroides thetaiotaomicron, UniProt Q8A109)
T1 sequence (Q8A109 18-382): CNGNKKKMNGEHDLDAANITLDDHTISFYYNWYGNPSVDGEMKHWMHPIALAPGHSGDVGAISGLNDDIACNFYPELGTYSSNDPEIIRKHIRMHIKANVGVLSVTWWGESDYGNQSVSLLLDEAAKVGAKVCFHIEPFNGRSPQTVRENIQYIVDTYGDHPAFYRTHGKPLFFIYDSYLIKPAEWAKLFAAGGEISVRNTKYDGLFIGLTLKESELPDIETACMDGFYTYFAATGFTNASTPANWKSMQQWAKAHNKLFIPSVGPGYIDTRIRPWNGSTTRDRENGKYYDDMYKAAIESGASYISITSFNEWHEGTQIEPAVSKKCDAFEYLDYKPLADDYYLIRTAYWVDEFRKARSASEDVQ
Assay: isothermal titration calorimetry
Format: binding

## N[C@@H]1CN[C@H](CO)[C@@H](O)[C@@H]1O[C@H]1O[C@H](CO)[C@@H](O)[C@H](O)[C@@H]1O [compound 1, α‐D‐Mannopyranosyl‐(1→3)‐2‐amino‐1,2,5‐trideoxy‐1,5‐imino‐D‐mannitol]
  Kd: 97.7 ± 4.9 µM
